Experimental data taken from PubChem BioAssay AID212 (DTP/NCI, 2004).
Where “and” joins values, the source holds several entries; their conditions need not be identical. Equal entries are not always repeated. Records with an inconclusive call do not appear.

Test system: BDF1 mice, colon carcinoma 38 sc, T/C %
Experiment: NCI In Vivo Anticancer Drug Screen. Data for tumor model Colon Carcinoma 38 (subcutaneous) in B6D2F1 (BDF1) mice
Details: endpoint: median tumor weight (est.), higher = larger tumour
Protocol: The antitumor activity of compounds was measured in mice bearing transplantable tumors. Survival or tumor size were measured and the results are expressed as the measurement made in the treated group (T) divided by the measurement made in the vehicle treated control group (C). The tumor model used in this assay is Colon Carcinoma 38 (subcutaneous) in B6D2F1 (BDF1) mice

[1] = dose: 12.5 mg/kg/injection, schedule: Q07DX002 (ip), vehicle: Klucel (hydroxypropylcellulose) (HPC)
[2] = dose: 50.0 mg/kg/injection, schedule: Q07DX002 (ip), vehicle: Klucel (hydroxypropylcellulose) (HPC)
[3] = dose: 100.0 mg/kg/injection, schedule: Q07DX002 (ip), vehicle: Klucel (hydroxypropylcellulose) (HPC)
[4] = dose: 200.0 mg/kg/injection, schedule: Q07DX002 (ip), vehicle: Klucel (hydroxypropylcellulose) (HPC)
[5] = dose: 1.56 mg/kg/injection, schedule: Q07DX002 (ip), vehicle: saline
[6] = dose: 3.12 mg/kg/injection, schedule: Q07DX002 (ip), vehicle: saline
[7] = dose: 6.25 mg/kg/injection, schedule: Q07DX002 (ip), vehicle: saline
[8] = dose: 12.5 mg/kg/injection, schedule: Q07DX002 (ip), vehicle: saline with Tween-80
[9] = dose: 25.0 mg/kg/injection, schedule: Q07DX002 (ip), vehicle: saline with Tween-80
[10] = dose: 50.0 mg/kg/injection, schedule: Q07DX002 (ip), vehicle: saline with Tween-80
[11] = dose: 100.0 mg/kg/injection, schedule: Q07DX002 (ip), vehicle: saline with Tween-80
[12] = dose: 200.0 mg/kg/injection, schedule: Q07DX002 (ip), vehicle: saline with Tween-80
[13] = dose: 400.0 mg/kg/injection, schedule: Q07DX002 (ip), vehicle: saline with Tween-80

Cc1cc(N(CCOS(C)(=O)=O)CCOS(C)(=O)=O)ccc1C=Nc1ccc(-c2nc(Cc3ccccc3)sc2C)cc1
T/C [1]: 112 % of control and 91 % of control | T/C (dose: 25.0 mg/kg/injection, schedule: Q07DX002 (ip), vehicle: Klucel (hydroxypropylcellulose) (HPC)): 100 % of control and 102 % of control | T/C [2]: 112 % of control and 98 % of control | T/C [3]: 63 % of control and 76 % of control | T/C [4]: 18 % of control and 30 % of control

Cc1cc(C)c(-c2cc(O)c(C)cc2O)c(C)c1
T/C [1]: 83 % of control | T/C [2]: 82 % of control

CCC(C(=O)O)C(=O)O.[NH2-].[NH2-].[Pt+2]
T/C (dose: 50.0 mg/kg/injection, schedule: Q07DX002 (ip), vehicle: saline): 46 % of control | T/C (dose: 100.0 mg/kg/injection, schedule: Q07DX002 (ip), vehicle: saline): 19 % of control | T/C (dose: 200.0 mg/kg/injection, schedule: Q07DX002 (ip), vehicle: saline): 2 % of control

CCC[P+](c1ccccc1)(c1ccccc1)c1ccccc1
T/C (dose: 3.12 mg/kg/injection, schedule: Q07DX003 (ip), vehicle: saline with Tween-80): 114 % of control and 98 % of control | T/C (dose: 6.25 mg/kg/injection, schedule: Q07DX003 (ip), vehicle: saline with Tween-80): 96 % of control | T/C (dose: 25.0 mg/kg/injection, schedule: Q07DX003 (ip), vehicle: saline with Tween-80): 76 % of control | T/C (dose: 50.0 mg/kg/injection, schedule: Q07DX003 (ip), vehicle: saline with Tween-80): 73 % of control

COC(=O)Nc1cccc(-c2nc3ccc(NC(=O)OC)cc3c(=O)n2-c2ccccc2)c1
T/C (dose: 32.0 mg/kg/injection, schedule: Q07DX003 (ip), vehicle: Klucel (hydroxypropylcellulose) (HPC)): 78 % of control | T/C (dose: 64.0 mg/kg/injection, schedule: Q07DX003 (ip), vehicle: Klucel (hydroxypropylcellulose) (HPC)): 70 % of control | T/C (dose: 128.0 mg/kg/injection, schedule: Q07DX003 (ip), vehicle: Klucel (hydroxypropylcellulose) (HPC)): 87 % of control | T/C (dose: 256.0 mg/kg/injection, schedule: Q07DX003 (ip), vehicle: Klucel (hydroxypropylcellulose) (HPC)): 30 % of control

O=c1ccc2ccccc2o1
T/C [2]: 115 % of control | T/C [3]: 118 % of control | T/C [4]: 118 % of control

O=C(O)C1CC1.[Ag]
T/C (dose: 6.25 mg/kg/injection, schedule: Q07DX002 (ip), vehicle: distilled water + Tween-80): 119 % of control | T/C (dose: 6.25 mg/kg/injection, schedule: Q07DX002 (ip), vehicle: water): 108 % of control | T/C (dose: 12.5 mg/kg/injection, schedule: Q07DX002 (ip), vehicle: water): 84 % of control | T/C (dose: 25.0 mg/kg/injection, schedule: Q07DX002 (ip), vehicle: distilled water + Tween-80): 87 % of control

O=c1[nH]cccc1O
T/C (dose: 32.0 mg/kg/injection, schedule: Q07DX002 (ip), vehicle: saline with Tween-80): 101 % of control | T/C (dose: 62.0 mg/kg/injection, schedule: Q07DX002 (ip), vehicle: saline with Tween-80): 177 % of control | T/C (dose: 62.5 mg/kg/injection, schedule: Q07DX002 (ip), vehicle: saline with Tween-80): 100 % of control | T/C (dose: 64.0 mg/kg/injection, schedule: Q07DX002 (ip), vehicle: saline with Tween-80): 76 % of control | T/C (dose: 125.0 mg/kg/injection, schedule: Q07DX002 (ip), vehicle: saline with Tween-80): 87 % of control | T/C (dose: 128.0 mg/kg/injection, schedule: Q07DX002 (ip), vehicle: saline with Tween-80): 94 % of control | T/C (dose: 250.0 mg/kg/injection, schedule: Q07DX002 (ip), vehicle: saline with Tween-80): 87 % of control | T/C (dose: 256.0 mg/kg/injection, schedule: Q07DX002 (ip), vehicle: saline with Tween-80): 58 % of control | T/C (dose: 512.0 mg/kg/injection, schedule: Q07DX002 (ip), vehicle: saline with Tween-80): 20 % of control

CC1(C)CC23C4COC(=O)C2CCC1C3CC4=O (stereo not given)
T/C (dose: 6.25 mg/kg/injection, schedule: Q07DX002 (ip), vehicle: DMSO): 116 % of control and 101 % of control | T/C (dose: 25.0 mg/kg/injection, schedule: Q07DX002 (ip), vehicle: DMSO): 81 % of control and 92 % of control | T/C (dose: 50.0 mg/kg/injection, schedule: Q07DX002 (ip), vehicle: DMSO): 121 % of control and 105 % of control | T/C (dose: 200.0 mg/kg/injection, schedule: Q07DX002 (ip), vehicle: DMSO): 103 % of control

ClCC[Se](Cl)(Cl)c1ccccc1
T/C [5]: 84 % of control | T/C (dose: 1.56 mg/kg/injection, schedule: Q07DX002 (ip), vehicle: suspension in saline): 83 % of control | T/C [6]: 96 % of control | T/C [7]: 105 % of control | T/C (dose: 6.25 mg/kg/injection, schedule: Q07DX002 (ip), vehicle: suspension in saline): 88 % of control | T/C (dose: 12.5 mg/kg/injection, schedule: Q07DX002 (ip), vehicle: saline): 90 % of control

C=CC(=O)N1CN(C(=O)C=C)CN(C(=O)C=C)C1
T/C (dose: 1.56 mg/kg/injection, schedule: Q07DX002 (ip), vehicle: saline with Tween-80): 82 % of control | T/C [5]: 74 % of control | T/C (dose: 3.12 mg/kg/injection, schedule: Q07DX002 (ip), vehicle: saline with Tween-80): 85 % of control | T/C [6]: 110 % of control | T/C (dose: 6.25 mg/kg/injection, schedule: Q07DX002 (ip), vehicle: saline with Tween-80): 104 % of control | T/C [7]: 90 % of control | T/C [8]: 120 % of control

O=C(O)C1Cc2nc[nH]c2CN1CO (stereo not given)
T/C [9]: 93 % of control | T/C [10]: 117 % of control and 98 % of control | T/C [11]: 113 % of control and 99 % of control | T/C [12]: 86 % of control | T/C [13]: 93 % of control | T/C (dose: 800.0 mg/kg/injection, schedule: Q07DX002 (ip), vehicle: saline with Tween-80): 89 % of control

CC(=O)CC(c1ccccc1)c1c(O)c2ccccc2oc1=O (stereo not given)
T/C (dose: 0.01 mg/kg/injection, schedule: Q07DX002 (ip), vehicle: Klucel (hydroxypropylcellulose) (HPC)): 96 % of control | T/C (dose: 0.02 mg/kg/injection, schedule: Q07DX002 (ip), vehicle: Klucel (hydroxypropylcellulose) (HPC)): 119 % of control | T/C (dose: 0.05 mg/kg/injection, schedule: Q07DX002 (ip), vehicle: Klucel (hydroxypropylcellulose) (HPC)): 100 % of control | T/C (dose: 0.1 mg/kg/injection, schedule: Q07DX002 (ip), vehicle: Klucel (hydroxypropylcellulose) (HPC)): 95 % of control | T/C (dose: 0.2 mg/kg/injection, schedule: Q07DX002 (ip), vehicle: Klucel (hydroxypropylcellulose) (HPC)): 86 % of control | T/C (dose: 0.22 mg/kg/injection, schedule: Q07DX002 (ip), vehicle: saline): 115 % of control | T/C (dose: 0.45 mg/kg/injection, schedule: Q07DX002 (ip), vehicle: saline with Tween-80): 91 % of control | T/C (dose: 0.45 mg/kg/injection, schedule: Q07DX002 (ip), vehicle: saline): 96 % of control | T/C (dose: 0.9 mg/kg/injection, schedule: Q07DX002 (ip), vehicle: saline with Tween-80): 110 % of control | T/C (dose: 0.9 mg/kg/injection, schedule: Q07DX002 (ip), vehicle: saline): 88 % of control | T/C (dose: 1.8 mg/kg/injection, schedule: Q07DX002 (ip), vehicle: saline): 72 % of control | T/C (dose: 3.6 mg/kg/injection, schedule: Q07DX002 (ip), vehicle: saline): 67 % of control

COc1cc(C2c3cc4c(cc3C(O)C(CO)C2CO)OCO4)cc(OC)c1OC (stereo not given)
T/C [8]: 81 % of control | T/C [9]: 155 % of control | T/C [10]: 180 % of control | T/C [11]: 203 % of control | T/C [12]: 160 % of control | T/C [13]: 174 % of control
